Several values for one entry are separate records, joined by “and”; a condition that tells them apart may be missing. Equal values may be shown once.
Tests used:
Trypsin [1] = target: T1, Trypsin (Sus scrofa, UniProt P00761)
Description: (§1) Inhibition of pig pancreatic trypsin after 15 mins

physchem = conditions: octanol/water
Description: (§2) Octanol-water partition coefficient, log P of the compound

[2] = target: Coagulation factor VII/tissue factor (Homo sapiens, UniProt P08709)
Description: Inhibition of amidolytic activity of human tissue factor/human factor 7a

[3] = octanol/water
Description: as §2

Trypsin [4] = target: T1, Trypsin; remark: listed apart in the source
Description: as §1

T1 sequence (P00761 whole entry): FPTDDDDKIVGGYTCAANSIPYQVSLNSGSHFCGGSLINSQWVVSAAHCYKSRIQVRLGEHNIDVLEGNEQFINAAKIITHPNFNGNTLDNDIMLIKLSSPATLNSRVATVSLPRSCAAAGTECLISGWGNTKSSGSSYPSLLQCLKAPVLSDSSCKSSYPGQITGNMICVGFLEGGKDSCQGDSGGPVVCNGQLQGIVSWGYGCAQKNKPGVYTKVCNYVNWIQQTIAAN
Chain of Coagulation factor VII/tissue factor (P08709 61-212 limits assumed): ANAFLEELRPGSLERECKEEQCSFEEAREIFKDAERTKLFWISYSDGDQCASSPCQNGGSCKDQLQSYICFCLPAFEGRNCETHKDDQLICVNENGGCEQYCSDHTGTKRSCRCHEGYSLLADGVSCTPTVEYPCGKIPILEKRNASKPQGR
Chain of Coagulation factor VII/tissue factor (P08709 213-466 limits assumed): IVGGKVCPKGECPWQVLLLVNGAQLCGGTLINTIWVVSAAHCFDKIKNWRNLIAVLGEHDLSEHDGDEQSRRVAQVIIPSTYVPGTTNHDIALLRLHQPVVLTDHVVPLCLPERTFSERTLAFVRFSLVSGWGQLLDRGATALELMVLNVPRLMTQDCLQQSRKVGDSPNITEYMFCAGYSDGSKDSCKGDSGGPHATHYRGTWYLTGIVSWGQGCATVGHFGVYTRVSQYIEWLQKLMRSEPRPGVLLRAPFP
Chain of Coagulation factor VII/tissue factor (P13726 33-295 partner limits assumed): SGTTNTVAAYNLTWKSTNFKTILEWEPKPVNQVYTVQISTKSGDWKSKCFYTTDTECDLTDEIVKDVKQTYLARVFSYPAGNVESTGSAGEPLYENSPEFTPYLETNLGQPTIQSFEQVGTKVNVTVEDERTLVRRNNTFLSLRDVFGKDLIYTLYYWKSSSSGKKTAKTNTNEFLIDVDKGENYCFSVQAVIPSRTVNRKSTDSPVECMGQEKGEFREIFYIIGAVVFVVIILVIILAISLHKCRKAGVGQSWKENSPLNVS

| IC50 (Trypsin [1]) [µM] | logP (physchem; logP) | IC50 [2] | logP [3] | IC50 (Trypsin [4]) [µM] | Structure (SMILES) | logP (physchem) |
| --- | --- | --- | --- | --- | --- | --- |
| > 200 | 3.54 | 80 µM | – | – | CCCCCCCC/C=C\CCCCCCCC(=O)O [OLEIC ACID] | – |
| > 200 | 3 | 41 µM | – | – | CCCCC/C=C\C/C=C\CCCCCCCC(=O)O [LINOLEIC ACID] | – |
| > 200 | 2.48 | 78 µM | – | – | CC/C=C\C/C=C\C/C=C\C/C=C\C/C=C\CCCC(=O)O [ICOSAPENT] | – |
| > 200 | – | 66 µM | – | – | CCCC/C=C\CCCCCCCC(=O)O [MYRISTOLEIC ACID] | – |
| > 200 | 2.73 | 120 µM | – | – | CCCCCC/C=C\CCCCCCCC(=O)O [PALMITOLEIC ACID] | – |
| > 200 | 2.51 | 30 µM | – | – | CC/C=C\C/C=C\C/C=C\CCCCCCCC(=O)O [LINOLENIC ACID] | – |

Continued, molecule first:

| Structure (SMILES) | IC50 (Trypsin [1]) [µM] | logP (physchem; logP) | IC50 [2] | logP [3] | IC50 (Trypsin [4]) [µM] | logP (physchem) |
| --- | --- | --- | --- | --- | --- | --- |
| CCCCCC/C=C\CCCCCCCc1cccc(O)c1C(=O)O [GINGKOLIC ACID] | > 200 | 3.99 | 32 µM | – | – | – |
| CCCCC/C=C\C/C=C\C/C=C\CCCCC(=O)O [GAMOLENIC ACID] | > 200 | 2.55 | 30 µM | – | – | – |
| CCCCC/C=C\C/C=C\C/C=C\C/C=C\CCCC(=O)O [ARACHIDONIC ACID] | > 200 | – | 105 µM | – | – | 2.9 |
| CCCCC/C=C\C/C=C\CCCCCCCc1cccc(O)c1C(=O)O | > 200 | 3.72 | 33 µM | – | – | – |
| CCCCC/C=C\C/C=C\CCCCCCCCCC(=O)O | > 200 | 2.41 | 52 µM | – | – | – |
| CCCCC/C=C\C/C=C\C/C=C\CCCCCCC(=O)O [DIHOMO-GAMMA-LINOLENIC ACID] | > 200 | 3.5 | 75 µM and 30 µM | 3.28 | > 200 | – |
| CC/C=C\C/C=C\C/C=C\CCCCCCCCCC(=O)O | > 200 | 3.3 | 100 µM | – | – | – |

Source: ChEMBL document CHEMBL1151306, “Inhibitory activity of unsaturated fatty acids and anacardic acids toward soluble tissue factor-factor VIIa complex” (J Nat Prod, 1998)
